This test concerns the target T1, human LPA1 (Homo sapiens, UniProt Q92633).
T1 construct: the full-length cDNA for human LPA1 was obtained by PCR of the reverse transcription reaction; expressed in transfected cells
As to the kind of experiment: LPA1 calcium flux assay. The class given is cell-based. Particulars: human LPA1 expressing CHO cells, stimulated with 10 nM LPA; read-out: HLPA1 Ca Flux IC50. An outline of the steps:
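CHO cells stably expressing human LPA1, serum-starved overnight and loaded with Calcium 4 dye in HBSS/20 mM Hepes/0.3% fatty-acid-free HSA, 1 h at 37 °C. Compounds pre-incubated 30 min at room temperature, then 10 nM LPA added; intracellular Ca2+ flux measured and IC50 from titration curves.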
A general note: A change in cytosolic calcium serves as a functional read-out for many receptors and channels.

SMILES strings stand for the structures. Some results are limits rather than exact numbers.

Experimental findings from patent US8664220B2, “Polycyclic compounds as lysophosphatidic acid receptor antagonists” (Amira Pharmaceuticals, Inc., priority 2009, dated 2014) are described below.

T1 sequence (Q92633 whole entry): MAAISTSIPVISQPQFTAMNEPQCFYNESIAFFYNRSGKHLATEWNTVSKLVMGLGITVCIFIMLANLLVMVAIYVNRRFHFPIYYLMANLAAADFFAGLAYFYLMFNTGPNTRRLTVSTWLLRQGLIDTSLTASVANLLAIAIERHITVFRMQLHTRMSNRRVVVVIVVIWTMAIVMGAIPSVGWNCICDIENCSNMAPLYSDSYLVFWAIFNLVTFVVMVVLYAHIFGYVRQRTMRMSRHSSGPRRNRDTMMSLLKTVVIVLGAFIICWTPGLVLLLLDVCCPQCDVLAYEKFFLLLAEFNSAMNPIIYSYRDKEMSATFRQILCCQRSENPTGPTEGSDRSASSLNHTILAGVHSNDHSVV

In the case of `COc1ccc(F)cc1-c1cccc(Nc2c(C)noc2-c2ccc(-c3ccc(C4(C(=O)O)CC4)cc3)cc2)n1` [Compound 1-146, 1-(4′-{4-[6-(5-Fluoro-2-methoxy-phenyl)-pyridin-2-ylamino]-3-methyl-isoxazol-5-yl}-biphenyl-4-yl)-cyclopropanecarboxylic acid], the IC50 (usually the concentration that inhibits the measured activity by half) is less than 300 nM.

With `Cc1noc(-c2ccc(-c3ccc(C4(CC(=O)O)CC4)cc3)cc2)c1C(O)CCCc1ccc(Cc2ccccc2)cc1` (stereo not shown) [Compound 1-32, [1-(4′-{4-[4-(4-Benzyl-phenyl)-1-hydroxy-butyl]-3-methyl-isoxazol-5-yl}-biphenyl-4-yl)-cyclopropyl]-acetic acid], the IC50 is 1000 to 50000 nM. Next, `Cc1noc(-c2ccc(-c3ccc(CCC(=O)O)cc3)cc2)c1Nc1nnc(-c2ccccc2)o1` [Compound 1-81, 3-{4′-[3-Methyl-4-(5-phenyl[1,3,4]oxadiazol-2-ylamino)-isoxazol-5-yl]-biphenyl-4-yl}-propionic acid]: less than 300 nM. As for `Cc1noc(-c2ccc(-c3ccc(C4(C(=O)O)CC4)cc3)cc2)c1Cn1cc(-c2ccccc2)cn1` [Compound 1-23, 1-{4′-[3-Methyl-4-(4-phenyl-pyrazol-1-ylmethyl)-isoxazol-5-yl]-biphenyl-4-yl}-cyclopropanecarboxylic acid], the IC50 is less than 300 nM. Next, `Cc1noc(-c2ccc(-c3ccc(C4(C(=O)O)CC4)cc3)cc2)c1Nc1cccc([S+]([O-])c2ccccc2)n1` (stereo not shown) [Compound 1-127, 1-{4′-[4-(6-Benzenesulfinyl-pyridin-2-ylamino)-3-methyl-isoxazol-5-yl]-biphenyl-4-yl}-cyclopropanecarboxylic acid]: less than 300 nM. To `CCc1noc(-c2ccc(-c3ccc(C4(C(=O)O)CC4)cc3)cc2)c1Nc1nnc(-c2ccccc2)o1` [Compound 2-2, 1-{4′-[3-Ethyl-4-(5-phenyl-[1,3,4]oxadiazol-2-ylamino)-isoxazol-5-yl]-biphenyl-4-yl}-cyclopropanecarboxylic acid] belongs less than 300 nM; to `Cc1noc(-c2ccc(-c3ccc(C4(C(=O)O)CC4)cc3)cc2)c1Nc1cccc(-c2cccnc2)c1` [Compound 1-103, 1-{4′-[3-Methyl-4-(3-pyridin-3-yl-phenylamino)-isoxazol-5-yl]-biphenyl-4-yl}-cyclopropanecarboxylic acid], less than 300 nM. To `Cc1noc(-c2ccc(-c3ccc(C4(CC(=O)O)CC4)cc3)cc2)c1Nc1cccc(-c2ccccc2)n1` [Compound 1-134, (1-{4′-[3-Methyl-4-(6-phenyl-pyridin-2-ylamino)-isoxazol-5-yl]-biphenyl-4-yl}-cyclopropyl)-acetic acid] belongs less than 300 nM.

With `Cc1noc(-c2ccc(-c3ccc(C4(C(=O)O)CC4)cc3)cc2)c1C(O)c1cncc(-c2cccc(C(F)(F)F)c2)c1` (stereo not shown) [Compound 1-130, 1-[4′-(4-{Hydroxy-[5-(3-trifluoromethyl-phenyl)-pyridin-3-yl]-methyl}-3-methyl-isoxazol-5-yl)-biphenyl-4-yl]-cyclopropanecarboxylic acid], the IC50 is less than 300 nM. Next, `Cc1noc(-c2ccc(-c3ccc(C4(C(=O)NS(C)(=O)=O)CC4)cc3)cc2)c1C(O)c1nnc(Cc2ccccc2)o1` (single isomer, unassigned) [Compound 3-2, N-[1-(4′-{4-[(5-Benzyl-[1,3,4]oxadiazol-2-yl)-hydroxy-methyl]-3-methyl-isoxazol-5-yl}-biphenyl-4-yl)-cyclopropanecarbonyl]-methanesulfonamide]: less than 300 nM. Next, `Cc1noc(-c2ccc(-c3ccc(C4(C(=O)O)CCC4)cc3)cc2)c1Nc1cccc(-c2ccccc2)n1` [Compound 1-122, 1-{4′-[3-Methyl-4-(6-phenyl-pyridin-2-ylamino)-isoxazol-5-yl]-biphenyl-4-yl}-cyclobutanecarboxylic acid]: less than 300 nM; `Cc1noc(-c2ccc(-c3ccc(C4(C(=O)O)CC4)cc3)cc2)c1C(O)c1cn(Cc2cccc(C(F)(F)F)c2)nn1` (stereo not shown) [Compound 1-50, 1-[4′-(4-{Hydroxy-[1-(3-trifluoromethyl-benzyl)-1H-[1,2,3]triazol-4-yl]-methyl}-3-methyl-isoxazol-5-yl)-biphenyl-4-yl]-cyclopropanecarboxylic acid]: 1000 to 50000 nM; `COc1cccc(-c2cccc(Nc3c(C)noc3-c3ccc(-c4ccc(C5(C(=O)O)CC5)cc4)cc3)n2)c1` [Compound 1-88, 1-(4′-{4-[6-(3-Methoxy-phenyl)-pyridin-2-ylamino]-3-methyl-isoxazol-5-yl}-biphenyl-4-yl)-cyclopropanecarboxylic acid]: less than 300 nM. Consider `Cc1noc(-c2ccc(-c3ccc(C4(C(=O)O)CC4)cc3)cc2)c1Nc1cccc(C#CC2CCCC2)n1` [Compound 1-135, 1-{4′-[4-(6-Cyclopentylethynyl-pyridin-2-ylamino)-3-methyl-isoxazol-5-yl]-biphenyl-4-yl}-cyclopropanecarboxylic acid], for which the IC50 was in the range of 300 to 1000 nM.

For the compound `Cc1noc(-c2ccc(-c3ccc(C4(C(=O)O)CC4)cc3)cc2)c1Nc1cccc(C(=O)NC2CC2)n1` [Compound 1-137, 1-{4′-[4-(6-Cyclopropylcarbamoyl-pyridin-2-ylamino)-3-methyl-isoxazol-5-yl]-biphenyl-4-yl}-cyclopropanecarboxylic acid], the IC50 was less than 300 nM.

For `Cc1noc(-c2ccc(-c3ccc(C4(C(=O)O)CC4)cc3)cc2)c1Cn1cc(-c2ccccc2)nn1` [Compound 1-6, 1-{4′-[3-Methyl-4-(4-phenyl-[1,2,3]triazol-1-ylmethyl)-isoxazol-5-yl]-biphenyl-4-yl}-cyclopropanecarboxylic acid], the IC50 is less than 300 nM.

Regarding `Cc1noc(-c2ccc(-c3ccc(C4(C(=O)O)CC4)cc3)cc2)c1Nc1cccc(-c2cccc(F)c2)n1` [Compound 1-93, 1-(4′-{4-[6-(3-Fluoro-phenyl)-pyridin-2-ylamino]-3-methyl-isoxazol-5-yl}-biphenyl-4-yl)-cyclopropanecarboxylic acid], the IC50 was less than 300 nM.

For `CCc1noc(-c2ccc(-c3ccc(C4(C(=O)O)CC4)cc3)cc2)c1Nc1cccc(-c2ccccc2)n1` [Compound 2-1, 1-{4′-[3-Ethyl-4-(6-phenyl-pyridin-2-ylamino)-isoxazol-5-yl]-biphenyl-4-yl}-cyclopropanecarboxylic acid], the IC50 was less than 300 nM.

As to `Cc1noc(-c2ccc(-c3ccc(C4(C(=O)O)CC4)cc3)cc2)c1CN1CCC(c2ccccc2)CC1` [Compound 1-10, 1-{4′-[3-Methyl-4-(4-phenyl-piperidin-1-ylmethyl)-isoxazol-5-yl]-biphenyl-4-yl}-cyclopropanecarboxylic acid], the IC50 is more than 50000 nM. Next, `Cc1noc(-c2ccc(-c3ccc(C4(C(=O)O)CC4)cc3)cc2)c1C(O)c1cn(Cc2ccc(Cl)cc2)nn1` (stereo not shown) [Compound 1-62, 1-[4′-(4-{[1-(4-Chloro-benzyl)-1H-[1,2,3]triazol-4-yl]-hydroxy-methyl}-3-methyl-isoxazol-5-yl)-biphenyl-4-yl]-cyclopropanecarboxylic acid]: less than 300 nM.

Consider `Cc1noc(-c2ccc(-c3ccc(C4(C(=O)O)CC4)cc3)cc2)c1Nc1cccc(OC2CCCCC2)n1` [Compound 1-138, 1-{4′-[4-(6-Cyclohexyloxy-pyridin-2-ylamino)-3-methyl-isoxazol-5-yl]-biphenyl-4-yl}-cyclopropanecarboxylic acid], for which the IC50 is less than 300 nM. To `Cc1noc(-c2ccc(-c3ccc(C4(C(=O)O)CC4)cc3)cc2)c1C(O)c1cn(Cc2ccc(Cl)c(Cl)c2)nn1` (stereo not shown) [Compound 1-64, 1-[4′-(4-{[1-(3,4-Dichloro-benzyl)-1H-[1,2,3]triazol-4-yl]-hydroxy-methyl}-3-methyl-isoxazol-5-yl)-biphenyl-4-yl]-cyclopropanecarboxylic acid] belongs less than 300 nM; to `Cc1ccccc1N1CCN(C(=O)c2c(C)noc2-c2ccc(-c3ccc(C4(C(=O)O)CC4)cc3)cc2)CC1` [Compound 1-2, 1-{4′-[3-Methyl-4-(4-o-tolyl-piperazine-1-carbonyl)-isoxazol-5-yl]-biphenyl-4-yl}-cyclopropanecarboxylic acid], 1000 to 50000 nM.

For `Cc1noc(-c2ccc(-c3ccc(C4(C(=O)O)CC4)cc3)cc2)c1Nc1cncc(-c2ccc(C(F)(F)F)cc2)c1` [Compound 1-119, 1-(4′-{3-Methyl-4-[5-(4-trifluoromethyl-phenyl)-pyridin-3-ylamino]-isoxazol-5-yl}-biphenyl-4-yl)-cyclopropanecarboxylic acid], the IC50 was less than 300 nM. For `Cc1noc(-c2ccc(-c3ccc(CCC(=O)O)cc3)cc2)c1C(O)c1cn(Cc2cccc(C(F)(F)F)c2)nn1` (stereo not shown) [Compound 1-52, 3-[4′-(4-{Hydroxy-[1-(3-trifluoromethyl-benzyl)-1H-[1,2,3]triazol-4-yl]-methyl}-3-methyl-isoxazol-5-yl)-biphenyl-4-yl]propionic acid], the IC50 lay in the range of 1000 to 50000 nM.

With `Cc1noc(-c2ccc(-c3ccc(C4(C(=O)O)CC4)cc3)cc2)c1Nc1cccc(-c2cccc(Cl)c2)n1` [Compound 1-162, 1-(4′-{4-[6-(3-Chloro-phenyl)-pyridin-2-ylamino]-3-methyl-isoxazol-5-yl}-biphenyl-4-yl)-cyclopropanecarboxylic acid], the IC50 was less than 300 nM.

On to `Cc1noc(-c2ccc(-c3ccc(C4(C(=O)O)CC4)cc3)cc2)c1Nc1cccc(C#Cc2ccccc2)n1` [Compound 1-131, 1-{4′-[3-Methyl-4-(6-phenylethynyl-pyridin-2-ylamino)-isoxazol-5-yl]-biphenyl-4-yl}-cyclopropanecarboxylic acid], for which the IC50 is less than 300 nM. As to `Cc1noc(-c2ccc(-c3ccc(C4(C(=O)O)CC4)cc3)cc2)c1C(O)c1cn(C(C)c2ccccc2)nn1` (stereo not shown) [Compound 1-55, 1-[4′-(4-{Hydroxy-[1-(1-phenyl-ethyl)-1H-[1,2,3]triazol-4-yl]-methyl}-3-methyl-isoxazol-5-yl)-biphenyl-4-yl]-cyclopropanecarboxylic acid], the IC50 was less than 300 nM.
